Results reported in patent publication US12377095B2, “Use of ligustrazine nitrone derivatives in treatment and prevention of diabetic complication diseases” (QINGDAO HAILAN PHARMACEUTICALS CO., LTD., priority 2019, dated 2025).

Tests used:
[1] = tested on: STZ-induced SHR rats; experiment: PAS staining, glomerular hardening of STZ-induced SHR rats; type: in vivo, rat; settings: 60 mg/kg
Procedure: 6 W-age SHR rats were abstained from food but not water for 12 h before injection, and then intraperitoneally injected with 55 mg/kg STZ after weighing (STZ required for fast injection, to be completed within 10 min), then put back to the cage to ensure that rat has sufficient drinking water in the period of 24 h, and the rats of normal control group were injected with citric acid buffer (pH 4.5) in the same volume. After 3 weeks of STZ injection, retinal venous blood was collected, and blood glucose ≥16.7 mmol/L was used as a molding standard, where the model of SHR rats that meet the above criteria is considered successful.
The route of administration is intragastrical, TBN is administered twice a day (fixed at 9:00-10:00 am and 3:00-4:00 pm), and Losartan is administered once a day (fixed at 9:00-10:00 am), continuously for 6 weeks.
The process is the same as in Example 9.

[2] = tested on: STZ-induced DKD rats; experiment: Serum biochemical parameters of STZ-induced DKD rats; type: in vivo, rat; settings: six weeks after administration, dose-dependent
Procedure: (§1) SD rats (200±10 g) were used as model animals, which were fasted for 12 h before injection. STZ was dissolved in citrate buffer at 1% concentration, and rats were fasted and intraperitoneally injected with 55 mg/kg STZ and placed in the cage, the rats being ensured with adequate water intake for 24 h. STZ injections need to be fast and complete within 10 minutes of injection. The normal control group was injected with an equal volume of pH 4.5 citric acid-sodium citrate buffer. The state of the animals (multiple drinking and polyuria) was observed. After 3 weeks of STZ injection, blood was collected from the tail vein, and fasting blood glucose ≥16.7 mmol/L was measured as the standard for diabetic nephropathy in rats.
(§2) DKD rats were randomly assigned to 6 groups and given with different drugs. After 6 weeks of administration, the experiment was terminated and the protective effect of the drug on DKD rats was observed.
Six weeks after the administration, the rats were anesthetized, and the blood was taken from the abdominal aorta, and, after standing for 1 hour, was centrifuged at 3000 rmp for 10 min and stored at −70° C. Serum levels of creatinine, urea nitrogen, cholesterol and triglycerides were measured using an automated biochemical analyzer.

[3] = tested on: STZ-induced DKD rats; experiment: Blood glucose and urine protein in STZ-induced DKD rats; type: in vivo, rat
Procedure: as §1, §2
During the experiment, the blood glucose of the rats was monitored after the completion of the modeling and after the completion of the administration, and urine protein was collected once at 24 hour.

[4] = tested on: STZ-induced DKD rats; experiment: Kidney index of STZ-induced DKD rats; type: in vivo, rat; settings: after 6 weeks of administration
Procedure: as §1, §2
After 6 weeks of administration, the kidney tissue was uniformly separated by an autoclave surgical instrument, and washed with normal saline. After the filter paper was blotted, the fine balance was weighed, and then stored in a refrigerator at −80° C. for use. Kidney index (relative to kidney weight) is kidney weight (mg)/body weight (g)[…].

[5] = tested on: STZ-induced DKD rats; experiment: Masson staining, interstitial fibrosis index, STZ-induced DKD rats; type: in vivo, rat
Procedure: Before the injection, the rats were fasted for 12 hours without water. After weighing, the rats were injected with 55 mg/kg STZ intraperitoneally (STZ needs to be injected quickly, and the injection was completed within 10 minutes), and then returned to the cage to ensure that the rats had sufficient drinking water for 24 hours. Rats were injected with an equal volume of citrate buffer (pH 4.5). After STZ injection for 3 weeks, blood was collected from the tail vein, and blood glucose ≥16.7 mmol/L was used as the criteria for the standard of the rats.
The route of administration is intragastric administration. TBN was administered twice a day (fixed at 9:00-10:00 am and 3:00-4:00 pm), and Losartan was administered once a day (fixed at 9:00-10:00 am) continuously for 6 weeks.
At the end of the experiment, the kidney tissues were quickly separated, fixed with 4% paraformaldehyde and embedded in paraffin, serially sliced, 5 μm each, dried at 37° C. for 1 h, and then subjected to Masson staining. The process is briefly as follows: paraffin sections are taken out of the 65° C. oven and immediately put in xylene for dewaxing and gradient alcohol rehydration, according to the kit instructions, add reagent A (a mixture of equal amounts of A1 and A2) for dyeing for 8 min; then use Reagent B differentiates and reagent C turns blue; reagent D stains for 7 min; reagent E washes for 1 min; reagent F washes for 1 min; reagent G stains for 1 min; dehydrated with 95% ethanol and absolute ethanol, transparent xylene, sealed with neutral gum piece.

[6] = tested on: cisplatin-induced C57BL/6J mice; experiment: Hepcidin level in cisplatin-induced renal anemia C57BL/6J mice; type: in vivo, mouse; settings: 60 mg/kg twice/day, 4 weeks, P<0.05
Procedure: Modeling method: the animals were randomly divided into 5 groups, i.e., normal control group, model group, three treatment groups, wherein the normal control group was injected with equal volume of normal saline, the model group and three treatment groups were intraperitoneally injected with cisplatin (CDDP) 5 mg/kg once a week, for 4 weeks.
The route of administration is intragastrical. TBN is administered twice a day (fixed at 9:00-10:00 am and 3:00-4:00 pm), and Roxadustat is administered once every two days (fixed at 9:00-10:00 am), for 4 weeks.
Hepcidin is a cysteine-rich antibacterial polypeptide synthesized and secreted by the liver. It plays a negative regulatory role in the regulation of iron balance in the body and can be used to indirectly evaluate the symptoms of anemia in mice. […] Cisplatin and other chemotherapeutic drugs can cause iron regulation imbalance in mice, and TBN administration can reduce the expression level of iron regulation in the body, and thus can be used to treat cancer complicated renal anemia.

How did the “degree of glomerular hardening (PAS) vs SHR-STZ group” value [1] turn out when `Cc1nc(C)c(/C=[N+](\[O-])C(C)(C)C)nc1C` [TBN] was run?
Its value is “significantly lower”.

And the serum cholesterol [2]?
The serum cholesterol was “significantly reduce”.

And the serum creatinine [2]?
Its serum creatinine is “significantly reduce”.

What about the serum triglyceride [2] of the same compound?
Its serum triglyceride is “significantly reduce”.

What about the serum urea nitrogen [2] of the same compound?
The serum urea nitrogen was “significantly reduce”.

And the “urinary protein content in urine” value ([3]; 24 hour urine, DKD rats)?
Its value is “significantly reduced”.

What about the blood glucose ([3]; after 6 weeks of treatment) of the same compound?
The blood glucose was “significantly decreased”.

And the kidney index [4]?
Its kidney index is “significantly reduced”.

And the interstitial fibrosis index ([5]; 60 mg/kg, P<0.01)?
The interstitial fibrosis index was “improved the most significantly”.

And the interstitial fibrosis index ([5]; TBN treatment groups (10, 30, 60 mg/kg), dose-dependent)?
Its interstitial fibrosis index is “decreased”.

And the “level of iron regulation (hepcidin) vs model group” value [6]?
Its value is “significantly reduced”.
